This test has as its system E. coli bacteria (ATCC 25922). In words: Broth microdilution antibacterial assay (MIC) in Mueller–Hinton broth, pH 5. It is filed as cell-based. As to conditions: for MIC: E. coli ATCC 25922, broth microdilution, Mueller–Hinton broth pH 5, 37 °C, 12 h, OD600, concentration at which bacterial growth reaches a minimum (at least 80% inhibited), average of two experiments, each in triplicate; for MIC50: E. coli, Mueller–Hinton broth pH 5, x50 from Origin fits of the growth curves of Figure 3 (concentration range 100 µM to 0.52 µM), fit error given, * error estimated in the range of the 1.5-fold dilution steps. Here is the method: Therefore, the antibacterial properties of both series of peptides were analyzed in Mueller–Hinton (MH) broth at pH 5 by determining the minimal inhibitory concentrations (MICs).
Figure 3 Bacterial growth as a function of peptide concentration for the LAH4-Ln (A) and the LAH4-An series (B). The average of two experimental data sets (each data point derived from triplicates under the same experiment conditions) covering the concentration range 100 µM to 0.52 µM are shown by the relative bacterial growth when compared to bacteria in the absence of peptide (=100%). To guide the eye, the data have been fitted with the function ymin + (ymax − ymin)/(1 + (x/xo)^p)^s using the OriginPro software. […] The assay was performed in Mueller–Hinton broth, pH 5.
A broth microdilution assay was used to determine the minimal inhibitory concentration (MIC). A peptide aliquot of 1 mg was first solubilized in 50% ethanol (10 mM) then diluted in H2O to get a 300 μM peptide stock solution.
For all the activity tests, E. coli bacteria (ATCC® 25922^TM, Thermo Fisher Scientific, Courtaboeuf, France) were used. Briefly, some colonies from E. coli spread on gelose were resuspended in Mueller–Hinton broth, pH 7.4. After incubation at 37 °C for about 6 h this preculture was diluted to OD550nm = 0.2 in MH at pH5 and allowed to grow to reach the exponential phase (OD550nm = 1–2). After two-step dilution in MH pH5, the working bacteria suspension corresponding to 1.10^5–2.10^5 colony-forming units (CFU)/mL was obtained.
The antimicrobial testing was carried out in 96-well microplates (sterile polystyrene untreated with F-bottom, Thermo Scientific Nunc A/S, Roskilde, Denmark). The first column of the plate contains the highest final concentration (Cf) of peptide to test (two experiments were done: the first one starting at Cf 100 μM and a second one starting at 30 μM). All samples were added to the first column of the plate and subsequently spread onto the plate by a 1.5-fold dilution series in 10 steps. The last columns correspond to the positive and negative control conditions, respectively. Finally, the bacterial working suspension was distributed (50 μL at 1.10^5–2.10^5 CFU/mL in MH1X at pH 5) to each well except for the negative control (MH1X at pH5). The final volume was 100 μL/well and the range of peptide concentrations tested was from 100 μM to 1.73 μM for the first experiment and from 30 μM to 0.52 μM for the second experiment. The microplates were incubated at 37 °C for 12 h before bacterial growth was assessed by measuring the OD600. The initial bacterial density for each experiment was checked by spreading 100 μL of the working bacterial suspension, diluted 1/100 and 1/500 in MH1X, pH 5 on MH agar plates. After overnight incubation at 37 °C, the CFU were counted and the CFU/mL were determined. The percentage of bacterial growth compared to the positive control allows one to determine the MIC. The MIC values represent the average of the lowest tested peptide concentration (from both experiments) where most (at least 80%) of the bacterial growth is inhibited.

In brackets after ≈: the same amount, converted by molar mass. Where a SMILES comes first, the peptide text is derived from it.

As usually defined, the MIC is the lowest concentration found to suppress growth. A higher MIC goes with a less susceptible organism. A word on the MIC50: it is an inhibitory concentration at the 50% level, which refers to growth in some studies and to a panel of isolates in others. On to `CC(C)C[C@H](NC(=O)[C@H](C)NC(=O)[C@H](Cc1c[nH]cn1)NC(=O)[C@H](C)NC(=O)[C@H](CC(C)C)NC(=O)[C@H](CC(C)C)NC(=O)[C@H](C)NC(=O)[C@H](CCCCN)NC(=O)[C@@H](N)CCCCN)C(=O)N[C@@H](C)C(=O)N[C@@H](Cc1c[nH]cn1)C(=O)N[C@@H](CC(C)C)C(=O)N[C@@H](C)C(=O)N[C@@H](CC(C)C)C(=O)N[C@@H](CC(C)C)C(=O)N[C@@H](C)C(=O)N[C@@H](CC(C)C)C(=O)N[C@@H](Cc1c[nH]cn1)C(=O)N[C@@H](CC(C)C)C(=O)N[C@@H](C)C(=O)N[C@@H](CC(C)C)C(=O)N[C@@H](Cc1c[nH]cn1)C(=O)N[C@@H](CC(C)C)C(=O)N[C@@H](CCCCN)C(=O)N[C@@H](CCCCN)C(=O)N[C@@H](C)C(N)=O` [LAH4-L0] (H-KKALLAHALAHLALLALHLALHLKKA-NH2), for which the MIC turned out to be 6 µM (≈ 16.7 µg/mL) and the MIC50 is 3.1 µM (≈ 8.61 µg/mL). For the molecule `CC(C)C[C@H](NC(=O)[C@H](C)NC(=O)[C@H](CC(C)C)NC(=O)[C@H](Cc1c[nH]cn1)NC(=O)[C@H](Cc1c[nH]cn1)NC(=O)[C@H](C)NC(=O)[C@H](CC(C)C)NC(=O)[C@H](CC(C)C)NC(=O)[C@H](C)NC(=O)[C@H](C)NC(=O)[C@H](Cc1c[nH]cn1)NC(=O)[C@H](CC(C)C)NC(=O)[C@H](CC(C)C)NC(=O)[C@H](C)NC(=O)[C@H](CC(C)C)NC(=O)[C@H](Cc1c[nH]cn1)NC(=O)[C@H](CC(C)C)NC(=O)[C@H](CC(C)C)NC(=O)[C@H](C)NC(=O)[C@H](CCCCN)NC(=O)[C@@H](N)CCCCN)C(=O)N[C@@H](C)C(=O)N[C@@H](CC(C)C)C(=O)N[C@@H](CCCCN)C(=O)N[C@@H](CCCCN)C(=O)N[C@@H](C)C(N)=O` [LAH4-L4] (H-KKALLHLALLHAALLAHHLALALKKA-NH2), the MIC50 is 0.8 µM (≈ 2.22 µg/mL). In the case of `CC(C)C[C@H](NC(=O)[C@H](C)NC(=O)[C@H](C)NC(=O)[C@H](CC(C)C)NC(=O)[C@H](CC(C)C)NC(=O)[C@H](CC(C)C)NC(=O)[C@H](C)NC(=O)[C@H](CC(C)C)NC(=O)[C@H](Cc1c[nH]cn1)NC(=O)[C@H](CC(C)C)NC(=O)[C@H](CC(C)C)NC(=O)[C@H](C)NC(=O)[C@H](CCCCN)NC(=O)[C@@H](N)CCCCN)C(=O)N[C@@H](Cc1c[nH]cn1)C(=O)N[C@@H](C)C(=O)N[C@@H](Cc1c[nH]cn1)C(=O)N[C@@H](CC(C)C)C(=O)N[C@@H](C)C(=O)N[C@@H](C)C(=O)N[C@@H](CC(C)C)C(=O)N[C@@H](Cc1c[nH]cn1)C(=O)N[C@@H](CC(C)C)C(=O)N[C@@H](CCCCN)C(=O)N[C@@H](CCCCN)C(=O)N[C@@H](C)C(N)=O` [LAH4-L6] (H-KKALLHLALLLAALHAHLAALHLKKA-NH2), the MIC result is “below 2 µM” and the MIC50 was 0.9 µM (≈ 2.5 µg/mL). Turning to “H-KKALLALALHHLALLAHHLALALKKA-NH2 [LAH4-L3, isomer of LAH4, LAH4-Ln series]”, the MIC50 was 1.4 µM. Still for that read-out and setting: to “H-KKALLLAALHHLLALAHHLAALLKKA-NH2 [LAH4-A3, isomer of LAH4, LAH4-An series]” belongs 7.5 µM.

The values are drawn from PMC8160934, “Different Biological Activities of Histidine-Rich Peptides Are Favored by Variations in Their Design” (Toxins, 2021).
